Reference: ChEMBL document CHEMBL1201862, “PubChem BioAssay data set” (2004)
Calls of active or inactive are those of the source.

Columns and labels:
[1] = biological target: Peroxisome proliferator-activated receptor gamma/Nuclear receptor coactivator 2 (Homo sapiens, UniProt P37231); assay: (§1) TR-FRET dose response biochemical High Throughput Screening assay for agonists of the steroid receptor coactivator 2 (SRC-2) recruitment by the peroxisome proliferator-activated receptor gamma (PPAR gamma): non-selective agonists. [Related pubchem assays: 1297, 1032 ]; assay type: functional
Chain of Peroxisome proliferator-activated receptor gamma/Nuclear receptor coactivator 2 (P37231 whole entry): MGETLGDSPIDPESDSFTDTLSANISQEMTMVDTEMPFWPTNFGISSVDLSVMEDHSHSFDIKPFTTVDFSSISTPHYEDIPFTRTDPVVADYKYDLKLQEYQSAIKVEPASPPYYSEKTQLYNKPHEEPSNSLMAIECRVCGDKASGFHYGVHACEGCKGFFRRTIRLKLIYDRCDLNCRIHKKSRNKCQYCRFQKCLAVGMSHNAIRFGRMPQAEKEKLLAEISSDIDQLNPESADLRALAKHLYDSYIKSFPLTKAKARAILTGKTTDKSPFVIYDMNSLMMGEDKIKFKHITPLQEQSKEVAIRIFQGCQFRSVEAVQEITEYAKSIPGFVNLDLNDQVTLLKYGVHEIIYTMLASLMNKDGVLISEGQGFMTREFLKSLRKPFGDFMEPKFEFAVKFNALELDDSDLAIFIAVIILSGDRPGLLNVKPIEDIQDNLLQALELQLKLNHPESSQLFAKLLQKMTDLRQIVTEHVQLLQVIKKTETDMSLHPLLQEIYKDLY
Chain of Peroxisome proliferator-activated receptor gamma/Nuclear receptor coactivator 2 (Q15596 whole entry, further chain): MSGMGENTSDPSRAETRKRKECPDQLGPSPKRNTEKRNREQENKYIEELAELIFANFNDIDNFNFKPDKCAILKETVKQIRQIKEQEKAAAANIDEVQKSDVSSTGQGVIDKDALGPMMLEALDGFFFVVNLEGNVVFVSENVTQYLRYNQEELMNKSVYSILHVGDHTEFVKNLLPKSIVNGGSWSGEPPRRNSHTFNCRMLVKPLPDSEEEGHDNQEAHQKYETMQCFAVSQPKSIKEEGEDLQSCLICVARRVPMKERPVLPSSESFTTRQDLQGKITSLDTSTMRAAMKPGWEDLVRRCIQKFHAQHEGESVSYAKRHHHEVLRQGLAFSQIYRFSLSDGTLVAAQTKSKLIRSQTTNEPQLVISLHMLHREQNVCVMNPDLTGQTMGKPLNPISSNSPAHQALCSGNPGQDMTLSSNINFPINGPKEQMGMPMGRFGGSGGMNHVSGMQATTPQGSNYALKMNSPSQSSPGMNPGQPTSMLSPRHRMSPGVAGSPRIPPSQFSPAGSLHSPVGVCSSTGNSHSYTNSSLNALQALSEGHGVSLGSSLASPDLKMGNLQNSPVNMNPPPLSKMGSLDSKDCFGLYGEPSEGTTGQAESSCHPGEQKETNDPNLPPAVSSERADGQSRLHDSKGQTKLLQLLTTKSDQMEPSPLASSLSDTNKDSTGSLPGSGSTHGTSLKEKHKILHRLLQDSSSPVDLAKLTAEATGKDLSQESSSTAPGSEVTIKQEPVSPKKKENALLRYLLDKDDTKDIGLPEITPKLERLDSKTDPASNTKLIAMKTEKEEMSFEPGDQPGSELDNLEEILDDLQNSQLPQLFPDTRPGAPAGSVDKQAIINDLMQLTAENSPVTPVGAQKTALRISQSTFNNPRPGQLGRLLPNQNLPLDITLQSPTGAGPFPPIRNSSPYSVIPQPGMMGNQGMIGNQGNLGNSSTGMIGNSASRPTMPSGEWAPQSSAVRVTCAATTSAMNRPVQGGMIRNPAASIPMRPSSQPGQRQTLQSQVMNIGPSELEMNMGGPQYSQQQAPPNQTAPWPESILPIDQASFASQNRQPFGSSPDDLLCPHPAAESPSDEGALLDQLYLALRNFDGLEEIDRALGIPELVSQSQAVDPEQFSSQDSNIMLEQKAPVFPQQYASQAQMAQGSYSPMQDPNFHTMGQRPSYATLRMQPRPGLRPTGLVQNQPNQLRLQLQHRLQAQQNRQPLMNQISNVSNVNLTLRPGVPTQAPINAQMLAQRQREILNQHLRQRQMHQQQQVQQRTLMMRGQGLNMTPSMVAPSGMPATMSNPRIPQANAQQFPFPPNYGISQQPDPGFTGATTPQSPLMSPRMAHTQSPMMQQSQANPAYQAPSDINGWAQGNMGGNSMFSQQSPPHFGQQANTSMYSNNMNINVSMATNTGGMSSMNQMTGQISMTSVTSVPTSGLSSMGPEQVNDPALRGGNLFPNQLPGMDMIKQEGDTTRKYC

[2] = biological target: Peroxisome proliferator-activated receptor gamma/Nuclear receptor coactivator 1 (Homo sapiens, UniProt P37231); assay: as §1, with “1 (SRC-1)” for “2 (SRC-2)”, “assays (depositor defined):AID1300, AID1808, AID504735, AID631]” for “assays: 1297, 1032 ]”; assay type: protein assay
[3] = biological target: Peroxisome proliferator-activated receptor gamma/Nuclear receptor coactivator 3 (Homo sapiens, UniProt P37231); assay: as §1, with “3 (SRC-3)” for “2 (SRC-2)”, “1301 (Confirmation screen.), 1048 (Primary screen.)]” for “1297, 1032 ]”; assay type: functional
Chain of Peroxisome proliferator-activated receptor gamma/Nuclear receptor coactivator 3 (P37231 whole entry): as the sequence (P37231 whole entry) above
Chain of Peroxisome proliferator-activated receptor gamma/Nuclear receptor coactivator 3 (Q9Y6Q9 whole entry, further chain): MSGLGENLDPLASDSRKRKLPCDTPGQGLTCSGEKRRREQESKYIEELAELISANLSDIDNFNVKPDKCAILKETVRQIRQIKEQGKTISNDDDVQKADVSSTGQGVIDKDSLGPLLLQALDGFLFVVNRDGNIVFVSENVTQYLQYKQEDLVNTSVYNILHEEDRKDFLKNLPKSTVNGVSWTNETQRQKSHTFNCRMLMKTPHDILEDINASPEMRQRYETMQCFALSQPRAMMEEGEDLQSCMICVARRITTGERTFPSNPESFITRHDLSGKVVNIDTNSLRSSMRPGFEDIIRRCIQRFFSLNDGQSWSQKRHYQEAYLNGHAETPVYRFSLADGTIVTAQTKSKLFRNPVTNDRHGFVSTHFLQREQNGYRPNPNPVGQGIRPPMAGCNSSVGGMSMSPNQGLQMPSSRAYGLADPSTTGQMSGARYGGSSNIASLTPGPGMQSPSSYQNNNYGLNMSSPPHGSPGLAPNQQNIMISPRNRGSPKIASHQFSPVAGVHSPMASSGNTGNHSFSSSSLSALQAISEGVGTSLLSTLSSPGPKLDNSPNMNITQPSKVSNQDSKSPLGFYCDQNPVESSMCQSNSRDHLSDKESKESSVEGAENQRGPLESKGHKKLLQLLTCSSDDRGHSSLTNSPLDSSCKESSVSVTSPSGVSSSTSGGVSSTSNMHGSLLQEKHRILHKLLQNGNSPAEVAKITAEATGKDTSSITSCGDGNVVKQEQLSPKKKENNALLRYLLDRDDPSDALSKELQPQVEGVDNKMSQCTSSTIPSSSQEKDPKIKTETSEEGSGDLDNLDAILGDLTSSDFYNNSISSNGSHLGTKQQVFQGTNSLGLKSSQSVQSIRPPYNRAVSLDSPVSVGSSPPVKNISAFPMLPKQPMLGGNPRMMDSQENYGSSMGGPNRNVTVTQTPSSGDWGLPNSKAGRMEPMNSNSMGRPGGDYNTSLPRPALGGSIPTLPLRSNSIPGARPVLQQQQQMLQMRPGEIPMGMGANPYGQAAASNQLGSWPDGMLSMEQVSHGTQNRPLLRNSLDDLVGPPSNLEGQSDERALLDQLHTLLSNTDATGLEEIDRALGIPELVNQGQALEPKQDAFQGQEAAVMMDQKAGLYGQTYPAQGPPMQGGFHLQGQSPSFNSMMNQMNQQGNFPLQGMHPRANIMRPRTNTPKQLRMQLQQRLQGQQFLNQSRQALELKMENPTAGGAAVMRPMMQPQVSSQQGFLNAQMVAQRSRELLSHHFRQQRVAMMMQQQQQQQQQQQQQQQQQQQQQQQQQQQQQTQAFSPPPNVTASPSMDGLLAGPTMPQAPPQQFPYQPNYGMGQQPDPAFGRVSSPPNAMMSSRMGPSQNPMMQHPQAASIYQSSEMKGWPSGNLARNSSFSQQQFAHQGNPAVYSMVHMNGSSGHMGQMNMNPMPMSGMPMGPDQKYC

Bcl-2-related protein A1 = biological target: T1, Bcl-2-related protein A1 (Mus musculus, UniProt Q07440); assay type: functional;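 note: confirmatory dose–response counterscreen on Bfl-1, used to check hits from a UBC13 polyubiquitin inhibitor campaign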
T1 sequence (Q07440 whole entry): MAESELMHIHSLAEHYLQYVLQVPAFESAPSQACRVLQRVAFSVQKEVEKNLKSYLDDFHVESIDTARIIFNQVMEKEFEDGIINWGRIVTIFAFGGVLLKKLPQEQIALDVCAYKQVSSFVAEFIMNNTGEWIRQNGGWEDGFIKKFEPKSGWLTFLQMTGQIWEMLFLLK

[4] = biological target: T2, Ubiquitin-conjugating enzyme E2 N (Homo sapiens, UniProt P61088); assay type: functional
T2 sequence (P61088 whole entry): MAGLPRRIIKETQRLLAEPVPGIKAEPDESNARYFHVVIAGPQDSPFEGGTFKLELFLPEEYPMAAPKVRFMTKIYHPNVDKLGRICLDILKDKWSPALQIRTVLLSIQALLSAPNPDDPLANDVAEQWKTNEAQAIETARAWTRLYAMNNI

[5] = biological target: T3, Short transient receptor potential channel 4 (Mus musculus, UniProt Q9QUQ5); assay: mouse TRPC4 channel activators, dose response, cell-based, HEK293 TRPC4/mu-opioid, Fluo-4 calcium (AID 434937); assay type: functional
T3 sequence (Q9QUQ5 whole entry): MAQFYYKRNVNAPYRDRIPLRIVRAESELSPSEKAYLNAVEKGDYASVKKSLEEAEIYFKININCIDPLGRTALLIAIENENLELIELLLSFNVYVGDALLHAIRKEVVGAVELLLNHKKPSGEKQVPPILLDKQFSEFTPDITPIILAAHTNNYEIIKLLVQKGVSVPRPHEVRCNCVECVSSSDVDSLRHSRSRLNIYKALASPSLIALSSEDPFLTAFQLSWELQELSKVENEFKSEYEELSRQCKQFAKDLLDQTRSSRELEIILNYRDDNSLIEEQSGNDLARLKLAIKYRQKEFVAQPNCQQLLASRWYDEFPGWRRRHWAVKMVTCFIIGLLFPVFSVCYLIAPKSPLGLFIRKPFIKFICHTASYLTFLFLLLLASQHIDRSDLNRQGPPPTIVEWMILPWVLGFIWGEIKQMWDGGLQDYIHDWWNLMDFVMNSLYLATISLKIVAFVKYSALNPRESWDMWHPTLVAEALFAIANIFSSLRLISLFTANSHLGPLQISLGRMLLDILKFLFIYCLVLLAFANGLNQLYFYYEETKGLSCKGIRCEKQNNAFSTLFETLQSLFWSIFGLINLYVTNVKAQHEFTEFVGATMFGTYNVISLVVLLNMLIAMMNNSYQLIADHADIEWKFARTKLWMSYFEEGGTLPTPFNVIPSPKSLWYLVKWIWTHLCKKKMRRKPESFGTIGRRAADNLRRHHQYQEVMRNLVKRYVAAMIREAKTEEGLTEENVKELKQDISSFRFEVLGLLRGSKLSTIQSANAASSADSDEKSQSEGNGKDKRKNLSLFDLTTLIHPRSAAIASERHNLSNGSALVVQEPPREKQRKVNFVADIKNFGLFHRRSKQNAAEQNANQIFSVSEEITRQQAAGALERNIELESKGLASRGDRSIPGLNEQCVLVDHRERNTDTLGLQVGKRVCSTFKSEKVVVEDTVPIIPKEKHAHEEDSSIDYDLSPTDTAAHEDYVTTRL

INS1 = assay: beta cell apoptosis inhibitors, cytokine rescue, dose response, luminescence, retest (AID 449756); assay type: functional, cell-based; conditions: Rattus norvegicus;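 note: cell death triggered by IL-1 beta plus TNF-alpha plus IFN-gamma mixture; protective hits raise ATP signal compared with cytokine alone wells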
[6] = biological target: T2, Ubiquitin-conjugating enzyme E2 N; assay type: functional; remark: listed apart in the source
[7] = biological target: T4, Mannose-6-phosphate isomerase (Homo sapiens, UniProt P34949); assay: PMI enzyme inhibitors, confirmation, biochemical, fluorescence intensity (AID 1535)
T4 sequence (P34949 whole entry): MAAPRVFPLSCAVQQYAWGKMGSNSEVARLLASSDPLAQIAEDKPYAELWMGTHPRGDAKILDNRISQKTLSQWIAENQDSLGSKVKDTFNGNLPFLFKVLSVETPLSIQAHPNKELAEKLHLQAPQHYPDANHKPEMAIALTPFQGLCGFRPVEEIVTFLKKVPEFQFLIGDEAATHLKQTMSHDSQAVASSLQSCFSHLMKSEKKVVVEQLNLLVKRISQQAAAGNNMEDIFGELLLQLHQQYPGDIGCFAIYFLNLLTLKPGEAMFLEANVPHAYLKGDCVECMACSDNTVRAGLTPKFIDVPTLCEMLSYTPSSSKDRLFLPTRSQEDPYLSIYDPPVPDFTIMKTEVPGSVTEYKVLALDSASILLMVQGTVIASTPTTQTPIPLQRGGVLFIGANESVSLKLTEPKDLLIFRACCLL

Phosphomannomutase 2 = biological target: T5, Phosphomannomutase 2 (Homo sapiens, UniProt O15305); assay: Counter screen SAR assay for PMM2 inhibitors via a fluorescence intensity assay. [Related pubchem assays (depositor defined):AID1545, AID1574]
T5 sequence (O15305 whole entry): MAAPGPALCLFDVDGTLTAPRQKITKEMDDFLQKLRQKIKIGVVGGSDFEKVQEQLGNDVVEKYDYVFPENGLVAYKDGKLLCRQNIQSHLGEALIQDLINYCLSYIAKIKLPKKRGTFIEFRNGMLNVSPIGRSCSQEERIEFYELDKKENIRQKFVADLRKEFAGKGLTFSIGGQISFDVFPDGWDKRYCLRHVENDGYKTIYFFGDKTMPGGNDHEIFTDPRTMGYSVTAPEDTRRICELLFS

[8] = biological target: ATP-dependent molecular chaperone HSP82 (Candida albicans (strain WO-1) (Yeast), UniProt C4YTQ8); assay: loss of DOC-induced GRE-beta-galactosidase reporter signal, dose response, Hsp90 inhibitor project, S. cerevisiae, luminescence (AID 2400); assay type: functional, cell-based;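 note: beta-galactosidase luminescence from glucocorticoid response element reporter as proxy for Hsp90 function; inhibitor potency where signal loss means Hsp90 inhibition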
Chain of ATP-dependent molecular chaperone HSP82 (C4YTQ8 whole entry): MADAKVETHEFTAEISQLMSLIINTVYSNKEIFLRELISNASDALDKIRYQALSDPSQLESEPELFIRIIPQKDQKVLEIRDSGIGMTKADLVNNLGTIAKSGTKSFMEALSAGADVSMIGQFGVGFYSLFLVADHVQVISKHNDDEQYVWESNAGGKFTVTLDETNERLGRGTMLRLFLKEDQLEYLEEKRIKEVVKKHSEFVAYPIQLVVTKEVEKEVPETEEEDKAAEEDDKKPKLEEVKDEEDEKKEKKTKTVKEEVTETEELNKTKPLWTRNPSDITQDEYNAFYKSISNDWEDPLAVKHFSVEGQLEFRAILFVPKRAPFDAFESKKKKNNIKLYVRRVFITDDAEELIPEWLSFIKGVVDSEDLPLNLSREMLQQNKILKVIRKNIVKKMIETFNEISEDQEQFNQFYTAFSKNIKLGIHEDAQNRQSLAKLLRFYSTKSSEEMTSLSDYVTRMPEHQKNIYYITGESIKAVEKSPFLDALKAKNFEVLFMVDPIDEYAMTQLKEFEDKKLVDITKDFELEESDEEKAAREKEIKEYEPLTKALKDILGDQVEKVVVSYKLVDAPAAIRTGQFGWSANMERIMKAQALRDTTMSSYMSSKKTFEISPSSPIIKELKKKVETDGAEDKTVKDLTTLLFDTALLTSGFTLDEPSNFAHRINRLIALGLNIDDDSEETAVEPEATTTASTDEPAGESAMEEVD

[9] = NIH-3T3 fibroblast cytotoxicity, dose response, cytotoxicity control, cell-based, fluorescence, Alamar Blue, secondary assay (AID 2327); assay type: functional;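 note: NIH-3T3 mouse fibroblasts cultured with fluconazole at 8 µg/mL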
[10] = C. albicans growth with fluconazole, confirmation, fluorescence, retest (AID 2467); assay type: functional, cell-based
[11] = biological target: T6, Serine/threonine-protein phosphatase (Candida dubliniensis (strain CD36 / CBS 7987 / NCPF 3949 / NRRLY-17841) (Yeast), UniProt B9W6M3); assay: calcineurin pathway inhibitors in yeast reporter, dose response, S. cerevisiae, CDRE-lacZ, luminescence, secondary (AID 2388); assay type: functional, cell-based;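 note: yeast reporter cells carrying a calcineurin-responsive lacZ construct stimulated with calcium chloride; luminescent beta-galactosidase reporter signal in whole cells rather than isolated phosphatase activity; potency for inhibition where a drop in reporter signal means calcineurin blockade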
T6 sequence (B9W6M3 whole entry): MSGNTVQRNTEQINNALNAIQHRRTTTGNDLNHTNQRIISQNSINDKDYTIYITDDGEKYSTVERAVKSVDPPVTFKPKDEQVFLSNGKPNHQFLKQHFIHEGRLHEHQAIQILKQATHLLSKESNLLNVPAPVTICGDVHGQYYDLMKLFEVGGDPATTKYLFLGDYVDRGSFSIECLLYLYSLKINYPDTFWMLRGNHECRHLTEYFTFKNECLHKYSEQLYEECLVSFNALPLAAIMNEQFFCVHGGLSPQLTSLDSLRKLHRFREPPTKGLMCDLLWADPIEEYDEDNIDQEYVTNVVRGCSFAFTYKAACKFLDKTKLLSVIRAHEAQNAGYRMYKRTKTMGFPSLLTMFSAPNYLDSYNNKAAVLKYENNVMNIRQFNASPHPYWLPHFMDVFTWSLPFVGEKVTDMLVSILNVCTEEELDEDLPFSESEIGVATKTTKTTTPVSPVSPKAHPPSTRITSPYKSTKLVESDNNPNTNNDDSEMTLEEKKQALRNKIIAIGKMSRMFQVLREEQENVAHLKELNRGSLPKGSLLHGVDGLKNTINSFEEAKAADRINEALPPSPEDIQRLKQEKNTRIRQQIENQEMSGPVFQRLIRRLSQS

[12] = biological target: T7, Heat shock factor protein 1 (Mus musculus, UniProt P38532); assay: inhibition of MG132-induced HSE-luciferase signal, confirmation, cell-based, NIH3T3, luminescence, dose retest (AID 2382); assay type: functional;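 note: NIH3T3 fibroblasts with HSF1-driven luciferase reporter stressed by proteasome inhibitor MG132; luminescence from HSF1-driven luciferase expression after 8 hours of MG132 stress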
T7 sequence (P38532 whole entry): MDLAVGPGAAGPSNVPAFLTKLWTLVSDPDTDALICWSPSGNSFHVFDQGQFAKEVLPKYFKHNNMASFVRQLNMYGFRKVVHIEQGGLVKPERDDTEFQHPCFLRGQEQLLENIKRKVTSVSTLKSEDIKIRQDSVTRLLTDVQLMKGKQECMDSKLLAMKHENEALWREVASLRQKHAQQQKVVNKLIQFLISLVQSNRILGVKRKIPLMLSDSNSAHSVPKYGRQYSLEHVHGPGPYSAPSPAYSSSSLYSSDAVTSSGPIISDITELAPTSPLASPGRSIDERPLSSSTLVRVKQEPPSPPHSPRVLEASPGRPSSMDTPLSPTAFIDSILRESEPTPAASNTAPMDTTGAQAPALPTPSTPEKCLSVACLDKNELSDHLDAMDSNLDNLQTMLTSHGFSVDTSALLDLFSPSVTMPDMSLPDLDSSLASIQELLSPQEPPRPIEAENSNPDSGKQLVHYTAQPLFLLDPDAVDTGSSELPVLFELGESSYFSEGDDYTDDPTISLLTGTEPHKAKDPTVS

Row | Structure (SMILES) | EC50 [1] | EC50 [2] | EC50 [3] | IC50 (Bcl-2-related protein A1) | IC50 [4] | IC50 [6] | other results
1 | Fc1ccc(-c2nnsc2Sc2ccccn2)cc1 | 11.8 µM (not active) | 8.31 µM (active) | 16.1 µM (not active) |  |  |  | 
2 | NC(=O)CSc1ncnc2c1oc1ccccc12 | > 26.5 µM (not active) | 27.6 µM (inactive) | > 79.4 µM (not active) |  |  |  | 
3 | CCSc1nnc(-c2ccccc2SC)o1 | 237 µM (not active) | > 79.4 µM (inactive) | > 79.4 µM (not active) |  |  |  | 
4 | CC(C)OC(=O)CNc1nnc(S)nc1O | 2.47 µM (active) | 2.28 µM (active) | 21.7 µM (not active) |  |  |  | 
5 | CN(C)CCCN(C(=O)c1ccc(S(=O)(=O)N(C)Cc2ccccc2)cc1)c1nc2cc3c(cc2s1)OCO3 |  |  |  | > 20 µM (inactive) | 11.5 µM (active) | 5.54 µM (active) | EC50 [5]: 9.44 µM (active); AC50 (INS1): > 120 µM (inactive)
6 | O=C(NCC1CCN(Cc2cccc(Cl)c2)CC1)C1CCCN(c2ncnc3c2nc2n3CCCCC2)C1 (stereo not given) |  |  |  | > 20 µM (inactive) | 3.87 µM (active) | 1.89 µM (active) | 
7 | Cc1ccncc1/N=c1\ssnc1Cl |  |  |  |  |  |  | IC50 [7]: 34 µM (active); IC50 (Phosphomannomutase 2): > 100 µM (inactive)
8 | O=[N+]([O-])c1ccc(O)c(P(=O)(c2ccccc2)c2ccccc2)c1 |  |  |  |  |  |  | EC50 [8]: > 150 µM (inactive); EC50 [9]: > 150 µM (inactive); EC50 [10]: 0.698 µM (active); EC50 [11]: > 180 µM (inactive)
9 | CCCC(C(=O)NC(C)(C)C)N(C(=O)c1snc(C(N)=O)c1N)c1ccc2c(c1)OCCO2 (stereo not given) |  |  |  | > 20 µM (inactive) | 8.3 µM (active) | 10.2 µM (active) | EC50 [12]: 1.58 µM (active)
